From PMC6390583 (BMC rheumatology, 2018)

Key:
[1] = system: IL-6 induced pSTAT3, CD14+ whole blood; assay: IL-6 signaling in human whole blood, CD14+ monocytic population; format: cell-based; details: JAK 1
[2] = system: IL-15 induced STAT5 phosphorylation; assay: IL-15 induced STAT5 phosphorylation in activated T-cells; format: cell-based; details: Homo sapiens, T-cell; T-blasts, JAK 1/3; read-out: Human IC50, IL-15 pSTAT5
Method: (§1) IL-6 and Oncostatin M (OSM) induced STAT3 phosphorylation was assessed in the human erythroleukemia TF-1 cell line. Erythropoietin-induced STAT5 phosphorylation was assessed in the human UT-7 cell line. IL-2 and IL-15 induced STAT5 phosphorylation was assessed in activated human T-cells. Detection of phosphorylated STATs was accomplished with the SureFire pSTAT5 or pSTAT3 Assay kit (Perkin Elmer, Hopkinton, MA) per standard manufacturer’s protocol, with the exception of an overnight incubation following addition of donor beads before detection on the EnVision (Perkin Elmer, Hopkinton, MA). IFNγ induced STAT1 phosphorylation was assessed in the CD14+ monocyte population in human PBMC by flow cytometry. CD14 BV421 was purchased from BD Biosciences (San Jose, CA). STAT1 PE ([…]) was purchased from ThermoFisher Scientific (Waltham, MA). IL-4 and IL-13 induced STAT6 phosphorylation and IL-31 induced STAT3 phosphorylation were assessed in adult human epithelial keratinocytes (HEKa, ThermoFisher Scientific, Waltham, MA) by flow cytometry. STAT6 PE (pY641) and STAT3 PE (Y705) were purchased from BD Biosciences (San Jose, CA).

reticulocyte deployment = assay: Epo induced reticulocyte deployment assay; format: in vivo; details: rat, Epo challenge, highest concentration tested
Method: Naïve male Lewis rats were injected intravenously with either PBS or 1000 IU of epoetin α (Procrit®, Janssen Products, LP, Horsham, PA) for two consecutive days. Reticulocytes were measured on day 4 by flow cytometry using thiozole orange as a dye as previously described.

[3] = system: Erythropoietin-induced STAT5 phosphorylation; assay: Erythropoietin-induced STAT5 phosphorylation in UT-7 cells; format: cell-based; details: Homo sapiens; UT7 cells, JAK 2; read-out: Human IC50, Epo pSTAT5
Method: as §1

[4] = system: IL-13 induced STAT6 phosphorylation; assay: IL-13 induced STAT6 phosphorylation in HEKa; format: cell-based; details: Homo sapiens, JAK 1/TYK2, read-out: Human IC50, IL-13 pSTAT6
Method: as §1

[5] = system: IL-6 induced STAT3 phosphorylation; assay: IL-6 induced STAT3 phosphorylation in TF-1 cells; format: cell-based; details: Homo sapiens, JAK 1, read-out: Human IC50, IL-6 pSTAT3
Method: as §1

[6] = system: IFNγ induced STAT1 phosphorylation; assay: IFNγ induced STAT1 phosphorylation in CD14+ monocytes of PBMC; format: cell-based; details: Homo sapiens, Monocyte, JAK 1/2, read-out: Human IC50, IFNγ pSTAT1
Method: as §1

IL-7 driven pSTAT5 = assay: Clinical ex vivo IL-7 stimulation of whole blood, pSTAT5; format: in vivo; details: healthy volunteers, 12 mg of upadacitinib, 1 h post dose
Method: (§2) Recombinant human IL-6 (400 ng/ml), or IL-7 (400 ng/ml), (R&D Systems, Minneapolis, MN) was added to blood and incubated for 10 min at 37°C. Surface antibodies were added (CD14-APC, CD3-fluorescein isothiocyanate [FITC]; BD Biosciences, San Jose, CA) and incubated on ice for an additional 20 min. Samples were lysed (Lyse/Fix, BD Biosciences, San Jose, CA) and incubated for 10 min at 37°C. Samples were washed and stored at − 70°C. For intracellular staining, samples were thawed, washed, and resuspended in BD Perm buffer III (BD Biosciences, San Jose, CA) on ice for 30 min. Samples were washed and stained with pSTAT5-PE or pSTAT3-PE (BD Biosciences, San Jose, CA) for 60 min at room temperature and then analyzed immediately on a FACSCalibur. Geometric means were determined using FlowJo analysis software.

[7] = system: IL-4 induced STAT6 phosphorylation; assay: IL-4 induced STAT6 phosphorylation in HEKa; format: cell-based; details: Homo sapiens, JAK 1/3, read-out: Human IC50, IL-4 pSTAT6
Method: as §1

[8] = system: adjuvant induced arthritis; assay: Rat adjuvant-induced arthritis (AIA) model; format: in vivo
[9] = system: CD3-/CD16+/CD56+ NK cells; assay: Circulating NK cell analysis after 14 days dosing; format: in vivo, rat
Method: Blood was collected and stained using BD MultiTest IMK kit (BD Biosciences, San Jose, CA) per manufacturer’s instructions. NK cell numbers were determined by using FlowJo analysis software (FlowJo, LLC, Ashland, OR) and by examining the CD3^−/CD16^+/CD56^+ population. The number of cells/μL was calculated by using the following equation: (# events in cell population/# of events in absolute bead count region) × (# beads per test/test volume), with the value beads per test indicated on the BD Trucount tube label.

IL-6 induced pSTAT3 = assay: Clinical ex vivo IL-6 stimulation of whole blood, pSTAT3; format: in vivo, healthy volunteers
Method: as §2

[10] = system: IL-31 induced STAT3 phosphorylation; assay: IL-31 induced STAT3 phosphorylation in HEKa; format: cell-based; details: Homo sapiens, JAK 1/2, read-out: Human IC50, IL-31 pSTAT3
Method: as §1

CC[C@@H]1CN(C(=O)NCC(F)(F)F)C[C@@H]1c1cnc2cnc3[nH]ccc3n12 [upadacitinib, (3S,4R)-3-ethyl-4-(3H-imidazo [1,2-a]pyrrolo [2,3-e]pyrazin-8-yl)-N-(2,2,2-trifluoroethyl) pyrrolidine-1-carboxamide]
IC50 [1]: 78 nM
IC50 [2]: 22 nM
Maximal inhibition of reticulocyte deployment (reticulocyte deployment): ~ 40%
IC50 [3]: 649 nM
IC50 [4]: 4 nM
IC50 [5]: 11 nM
IC50 [6]: 19 nM
Inhibition of IL-7 driven pSTAT5 (IL-7 driven pSTAT5): ~ 70%
IC50 [7]: 2 nM
Histological endpoints ([8]; 3 and 10 mg/kg dose groups, data not shown): improved synovial hypertrophy, inflammation, cartilage damage and bone erosion
Reduction in paw swelling at clinical AUC exposures ([8]; exposures for 6 mg BID and 12 mg BID clinical doses of upadacitinib): > 90%
AUC60, AUC0-12 drug concentration necessary to achieve 60% inhibition of paw swelling ([8]; oral BID): 83 ng·h/mL
Effect on paw swelling ([8]; oral, dosed from day 7): dose and exposure dependent reductions in paw swelling
AUC60 for decrease of circulating NK cell numbers ([9]; naive rats dosed orally for 14 days): 480 ng·h/mL
Decrease in circulating NK cells at AUC60 ([9]; rat, at AUC60 of paw swelling): 25%
inhibition at 3 mg (IL-6 induced pSTAT3; Homo sapiens, 1 h): ~50%
Dose reaching maximal pSTAT3 inhibition (IL-6 induced pSTAT3; healthy volunteers, IL-6 stimulation, 1 h post dose): 36 mg
IC50 [10]: 3 nM
